Data on six molecules can be found in ChEMBL document CHEMBL6096672, “In Silico Enabled Discovery of KAI-11101, a Preclinical DLK Inhibitor for the Treatment of Neurodegenerative Disease and Neuronal Injury” (J Med Chem, 2025).

≈ marks a conversion by molar mass, not a printed value. Calls of active or inactive are those of the source. The rule behind the calls is not given here.

Data set [1] can be described thus: Drug metabolism in cynomolgous monkey hepatocytes assessed as formation of N-methylated metabolites. Type of data set: ADME, cell-based, Macaca fascicularis, Hepatocyte. The note with it: cynomolgus monkey.
Data set [2] is described as follows: Oral bioavailability in mouse. Format: ADME, organism-based. The note with it: in vivo.
The nature of data set [3]: Cytotoxicity against human HepG2 cells. Type of data set: toxicity, cell-based.
Data set [4] can be described thus: Volume of distribution at steady state in IV-dosed mouse. Type of data set: ADME. The note with it: in vivo, read-out: Vdss.
The nature of data set [5]: Clearance in IV-dosed dog. Type of data set: ADME, Canis lupus familiaris. The note with it: in vivo.
Data set [6] is described as follows: Unbound fraction in mouse brain at 3 to 75 mg/kg, po measured after 2 hrs. Format: ADME, organism-based. The note with it: in vivo, dose 3-75 mg/kg.
Data set [7] is described as follows: Inhibition of GST-tagged DLK (1 to 520 residues)(unknown origin) using MKK4 as substrate preincubated for 60 mins followed by substrate/ATP addition measured after 30 mins by HTRF assay. The arrangement: species or system Homo sapiens.
The nature of data set [8]: Inhibition of DLK in C57/Bl6 mouse DRG neuron model of paclitaxel-induced axon degeneration assessed as decrease in p-cJun level measured after 20 hrs by immunofluorescence based analysis. Type of data set: cell-based.
A short description of data set [9]: Ratio of unbound drug concentration in brain to plasma of rat. Type of data set: ADME. The note with it: brain and plasma, read-out: K(p,uu,brain).
A short description of data set [10]: Clearance in IV-dosed rat. Format: ADME. The note with it: in vivo.
A short description of data set [11]: Intrinsic clearance in mouse liver microsomes. The note with it: read-out: CLH. Format: ADME, Microsome.
Data set [12] concerns the target Voltage-gated inwardly rectifying potassium channel KCNH2 (Homo sapiens, UniProt Q12809). Briefly: Inhibition of hERG by patch-clamp method. Format: toxicity.
A short description of data set [13]: Drug metabolism in dog hepatocytes assessed as formation of N-methylated metabolites. Format: ADME, cell-based, Canis lupus familiaris, Hepatocyte.
The nature of data set [14]: Volume of distribution at steady state in IV-dosed cynomolgous monkey. Type of data set: ADME, Macaca fascicularis. As to conditions: cynomolgus monkey, in vivo, read-out: Vdss.
A further data set has as its target CYP3A4 (Homo sapiens, UniProt P08684). Briefly: Time dependent inhibition of CYP3A4 (unknown origin) at 30 uM incubated for 30 mins relative to control. Format: ADME. As to conditions: read-out: TDI.
Data set [15] can be described thus: Drug metabolism in human hepatocytes assessed as formation of N-methylated metabolites. Type of data set: ADME, cell-based, Hepatocyte.
Data set [16] can be described thus: Total drug concentration in mouse brain at 3 to 75 mg/kg, po measured after 2 hrs. Format: ADME, organism-based. As to conditions: dose 3-75 mg/kg, read-out: Ct.
Data set [17] is described as follows: Total unbound drug concentration in mouse brain at 3 to 75 mg/kg, po measured after 2 hrs. Format: ADME, organism-based. As to conditions: in vivo, dose 3-75 mg/kg.
Data set [18] in a line: Inhibition of GST-tagged LZK (1 to 966 residues)(unknown origin) using MKK4 as substrate preincubated for 60 mins followed by substrate/ATP addition measured after 30 mins by HTRF assay. On the set-up: species or system Homo sapiens.
A short description of data set [19]: Intrinsic clearance in dog liver microsomes. Format: ADME, Canis lupus familiaris, Microsome. The note with it: read-out: CLH.
Data set [20] has as its target T1, CYP3A (Homo sapiens, UniProt P08684+P20815+P24462+Q9HB55). Briefly: Binding affinity to CYP3A in human liver microsomes assessed as inhibition constant. Format: ADME, Microsome.
Data set [21] in a line: Oral bioavailability in cynomolgous monkey. Type of data set: ADME, organism-based, Macaca fascicularis. The note with it: cynomolgus monkey, in vivo.
Data set [22] can be described thus: Volume of distribution at steady state in IV-dosed dog. Format: ADME, Canis lupus familiaris. The note with it: in vivo, read-out: Vdss.
The nature of data set [23]: Half life in IV-dosed rat. Format: ADME. The note with it: in vivo.
Data set [24] can be described thus: Half life in IV-dosed dog. The note with it: in vivo. Type of data set: ADME, Canis lupus familiaris.
The nature of data set [25]: Protection against paclitaxel-induced axon degeneration in C57/Bl6 mouse DRG neurons measured after 72 hrs by immunofluorescence based analysis. Type of data set: functional, cell-based. The note with it: drg neuron.
Data set [26] in a line: Half life in IV-dosed mouse. Type of data set: ADME. As to conditions: in vivo.
Data set [27] can be described thus: Protection against paclitaxel-induced axon degeneration in C57/Bl6 mouse DRG neurons at 0.74 uM measured after 72 hrs by immunofluorescence based analysis relative to control. Format: functional. The note with it: C57/Bl6, DRG neuron.
A short description of data set [28]: In vivo inhibition of DLK in mouse cerebellum at 3 to 75 mg/kg, po measured after 2 hrs. Format: functional, organism-based.
A short description of data set [29]: Ratio of unbound drug concentration in brain to plasma of CD-1 mouse at 5 to 75 mg/kg, po. Format: ADME, organism-based. The note with it: brain and plasma, dose 5-75 mg/kg, read-out: K(p,uu,brain).
A short description of data set [30]: Drug metabolism in PO-dosed dog plasma assessed as formation of N-methylated metabolites. Type of data set: ADME, Canis lupus familiaris.
A short description of data set [31]: Clearance in IV-dosed mouse. The note with it: in vivo. Format: ADME.
Data set [32] is described as follows: Half life in IV-dosed cynomolgous monkey. The note with it: cynomolgus monkey, in vivo. Format: ADME, Macaca fascicularis.
Data set [33] can be described thus: Clearance in IV-dosed cynomolgous monkey. Type of data set: ADME, Macaca fascicularis. The note with it: cynomolgus monkey, in vivo.
A short description of data set [34]: Volume of distribution at steady state in IV-dosed rat. Type of data set: ADME. The note with it: in vivo, read-out: Vdss.
The nature of data set [35]: Intrinsic clearance in human liver microsomes. As to conditions: read-out: CLH. Type of data set: ADME, Microsome.
Data set [36] in a line: Inhibition of human DLK transfected in HEK293-T-REx cells assessed as decrease in JNK phosphorylation incubated for 5 hrs by HTRF assay. Type of data set: cell-based.
The nature of data set [37]: Oral bioavailability in rat. Format: ADME, organism-based. As to conditions: in vivo.
Data set [38] deals with T1, CYP3A. Briefly: Binding affinity to CYP3A in human liver microsomes assessed as inactivation constant. Type of data set: ADME, Microsome.
The nature of data set [39]: Oral bioavailability in dog. Type of data set: ADME, organism-based, Canis lupus familiaris. As to conditions: in vivo.
Data set [40] can be described thus: Drug metabolism in rat hepatocytes assessed as formation of N-methylated metabolites. Format: ADME, cell-based, Hepatocyte.
Data set [41] in a line: Apparent permeability across apical to basal side in MDCK-MDR1 cells. Type of data set: ADME, cell-based, Canis lupus familiaris. The note with it: dog.
Data set [42] in a line: Clearance in mouse at 5 mg/kg, po. Type of data set: ADME, organism-based. The note with it: in vivo.
Data set [43] is described as follows: Efflux ratio in MDCK-MDR1 cells. Format: ADME, cell-based, Canis lupus familiaris. The note with it: dog.
Data set [44] in a line: Kinetic solubility of compound at pH 6.8. As to conditions: buffer, read-out: Kinetic_solubility. Type of data set: physicochemical.
Data set [45] in a line: Oral bioavailability in mouse at 5 mg/kg. The note with it: in vivo. Type of data set: ADME, organism-based.
A short description of data set [46]: Half life in mouse at 5 mg/kg, po. As to conditions: in vivo. Format: ADME, organism-based.
The nature of data set [47]: Ratio of unbound drug concentration in brain to plasma of mouse at 5 mg/kg. Type of data set: ADME, organism-based. The note with it: brain and plasma, read-out: K(p,uu,brain).
Data set [48] can be described thus: Energy of neutralization, pKa of compound. Type of data set: physicochemical.
In a further data set the test system is DRG neuron. Briefly: Protection against paclitaxel-induced axon degeneration in C57/Bl6 mouse DRG neurons at 1 uM measured after 72 hrs by immunofluorescence based analysis. Format: functional, cell-based.

Chain of CYP3A4 (P08684 whole entry): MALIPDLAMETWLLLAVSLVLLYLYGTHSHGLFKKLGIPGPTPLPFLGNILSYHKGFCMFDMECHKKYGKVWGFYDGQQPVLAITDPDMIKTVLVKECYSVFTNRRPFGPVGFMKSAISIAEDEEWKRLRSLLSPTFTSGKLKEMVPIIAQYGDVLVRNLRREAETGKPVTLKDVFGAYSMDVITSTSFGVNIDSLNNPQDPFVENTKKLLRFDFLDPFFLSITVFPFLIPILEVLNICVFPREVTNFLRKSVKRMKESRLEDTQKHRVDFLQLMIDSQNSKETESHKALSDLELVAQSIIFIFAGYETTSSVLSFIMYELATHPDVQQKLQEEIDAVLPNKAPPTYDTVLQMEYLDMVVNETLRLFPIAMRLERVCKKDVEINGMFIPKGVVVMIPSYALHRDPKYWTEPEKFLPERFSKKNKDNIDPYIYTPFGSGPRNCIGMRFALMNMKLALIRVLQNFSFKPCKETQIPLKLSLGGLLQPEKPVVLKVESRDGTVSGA
Chain of Voltage-gated inwardly rectifying potassium channel KCNH2 (Q12809 whole entry): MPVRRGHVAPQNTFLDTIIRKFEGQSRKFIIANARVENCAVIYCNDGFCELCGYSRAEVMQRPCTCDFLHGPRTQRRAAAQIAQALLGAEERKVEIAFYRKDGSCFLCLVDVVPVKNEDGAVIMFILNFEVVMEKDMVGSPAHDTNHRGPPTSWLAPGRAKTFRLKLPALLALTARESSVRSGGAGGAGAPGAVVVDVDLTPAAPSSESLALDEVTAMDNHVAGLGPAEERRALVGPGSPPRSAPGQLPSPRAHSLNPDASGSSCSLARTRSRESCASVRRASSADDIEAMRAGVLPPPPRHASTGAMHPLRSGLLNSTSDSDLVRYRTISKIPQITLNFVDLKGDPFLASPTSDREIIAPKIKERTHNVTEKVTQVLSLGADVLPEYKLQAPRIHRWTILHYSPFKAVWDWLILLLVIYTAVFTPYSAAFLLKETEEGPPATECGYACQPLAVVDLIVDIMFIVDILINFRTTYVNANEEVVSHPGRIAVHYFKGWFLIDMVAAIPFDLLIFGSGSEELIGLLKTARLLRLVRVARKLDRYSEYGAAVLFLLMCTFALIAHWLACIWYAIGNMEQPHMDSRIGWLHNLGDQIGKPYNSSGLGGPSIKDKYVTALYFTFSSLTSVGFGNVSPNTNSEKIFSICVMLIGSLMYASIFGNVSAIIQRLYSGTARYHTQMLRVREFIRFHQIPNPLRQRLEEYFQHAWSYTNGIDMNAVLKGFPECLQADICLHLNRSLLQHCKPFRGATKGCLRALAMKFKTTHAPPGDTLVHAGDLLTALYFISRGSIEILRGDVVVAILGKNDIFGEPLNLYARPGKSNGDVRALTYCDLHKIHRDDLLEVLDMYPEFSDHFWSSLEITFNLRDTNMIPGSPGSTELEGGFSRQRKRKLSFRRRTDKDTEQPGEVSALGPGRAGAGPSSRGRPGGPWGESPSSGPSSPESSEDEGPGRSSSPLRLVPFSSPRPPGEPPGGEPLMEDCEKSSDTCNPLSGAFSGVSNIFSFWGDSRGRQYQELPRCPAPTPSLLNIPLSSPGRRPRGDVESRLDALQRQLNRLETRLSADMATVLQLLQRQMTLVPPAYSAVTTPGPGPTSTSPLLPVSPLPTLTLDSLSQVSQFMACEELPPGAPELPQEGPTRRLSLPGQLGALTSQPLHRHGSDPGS

For `CCn1nc(-c2cnc(N)c(OC(F)F)c2)c2ccn([C@@H]3CCC(F)(F)C[C@@H]3OC)c(=O)c21`, the Drug metabolism entry in [1], in data set [13], in data set [15], in [30] and in [40] was “metabolite_detected” throughout. Also, the bioavailability in data set [2] was found to be 53%; in data set [21], 52%; in [37], 57%; in data set [39], 81%. Besides, the IC50 in data set [3] stood at 52 µM; in data set [8] it was 95 nM; in data set [12] it was 9 µM; in [28], 31 nM; in data set [36], 51 nM. Besides, the Vd in data set [4] is 1.6 L/kg; in [14] it was 4.8 L/kg; in data set [22] it was 8.8 L/kg; in [34], 4.3 L/kg. The clearance in [5] came to 24 mL/min/kg; in data set [10], 8.3 mL/min/kg; in data set [31], 5.3 mL/min/kg; in [33], 5.5 mL/min/kg. The molecule further displayed a Fu in [6] of 1.5%. In addition, the values for the Ki (in [7]; in [18]; on CYP3A [20]) were 0.69 nM, 15 nM and 170 µM, respectively. For the same molecule, the Kp uu stood at 0.6 in [9] and 0.3 in [29]. In addition, the values for the microsomal CLint in data set [11], in [19] and in data set [35] were 18 µL/min/mg, 5.8 µL/min/mg and below 3 µL/min/mg, respectively. Further, the inhibition at 0.5 h, 30 µM on CYP3A4 is 27.5%. Also, the concentration at 2 h in [16] was 1000 ng/g. In addition, the “Drug uptake(free)” value in data set [17] came out at 14.5 ng/g. Further, the half-life in data set [23] is 432 min; in data set [24] it was 396 min; in data set [26], 288 min; in data set [32] it was 720 min. In data set [25], a half-maximal response (EC50) required 363 nM. This molecule also displayed a maximal effect (Emax) at 0.74 µM in [27] of 72%. Further, on CYP3A [38], the kinact is 0.00117 s⁻¹.
In data set [7], `CCn1nc(-c2cnc(N)c(OC(F)(F)F)c2)c2ccn([C@H]3CCN(C)C[C@H]3OC(F)(F)F)c(=O)c21` gave a Ki of 1.1 nM. Besides, the figures for the microsomal CLint in data set [11], in data set [19] and in [35] were 66 µL/min/mg, 21 µL/min/mg and 41 µL/min/mg, respectively. In addition, the IC50 in [36] came out at 130 nM.
Regarding `CCc1nc(-c2cnc(N)c(OC(F)F)c2)c2ccc([C@H]3COCCN3C)cn12`, the Papp A→B in [41] came out at 30.1 ×10⁻⁶ cm/s. The CL/F in data set [42] worked out at 109 mL/min/kg. The microsomal CLint in [11] was determined as 17 µL/min/mg; in data set [35], 8 µL/min/mg. Also, in data set [43], the efflux ratio came out at 0.8. Besides, the solubility kinetic in data set [44] came to 284 µM (≈ 115 µg/mL). Further, the bioavailability in data set [45] was found to be 144%. This molecule also showed a half-life in [46] of 18 min. Moreover, the Kp uu in data set [47] worked out at 0.14.
Consider `CCc1nc(-c2cnc(N)c(OC(F)(F)F)c2)c2ccc([C@H]3COCCN3C)cn12`, for which the Papp A→B in data set [41] came out at 37.6 ×10⁻⁶ cm/s. In [42], the CL/F turned out to be 40 mL/min/kg. The values for the Ki (in [7]; at CYP3A [20]) were 0.8 nM and 12.4 µM, respectively. Besides, the microsomal CLint was found to be 1 µL/min/mg in data set [11] and 6 µL/min/mg in data set [35]. Also, the IC50 worked out at 16 µM in data set [12] and 48 nM in data set [36]. The efflux ratio in data set [43] was 0.7. Besides, the inhibition at 0.5 h, 30 µM at CYP3A4 came out at 72%. Besides, the solubility kinetic in data set [44] was determined as 295 µM (≈ 124 µg/mL). For the same molecule, in data set [45], the bioavailability worked out at 141%. The molecule also had a half-life in data set [46] of 48 min. The Kp uu in [47] came to 0.17. This molecule also displayed a pKa in data set [48] of 5.8. The EC50 in [25] is 305 nM. Also, the kinact on CYP3A [38] is 0.00113 s⁻¹. Further, in the data set with DRG neuron, the outcome was Active.
Turning to `CCn1nc(-c2cnc(N)c(OC(F)(F)F)c2)c2ccn([C@H]3CCOC[C@H]3OC3CC3)c(=O)c21`, the Ki in data set [7] was found to be 1.3 nM. The microsomal CLint worked out at 21 µL/min/mg in [11], 21 µL/min/mg in [19] and 12 µL/min/mg in [35]. Also, in data set [47], the Kp uu was determined as 0.22. In [36], the IC50 amounted to 95 nM.
Take `CCc1nc(-c2cnc(N)c(C(F)(F)F)c2)c2ccc(C3CCOCC3)cn12`: in [41], the Papp A→B was found to be 12.3 ×10⁻⁶ cm/s. Also, the values for the microsomal CLint in data set [11] and in data set [35] were 9 µL/min/mg and 27 µL/min/mg, respectively. Moreover, the efflux ratio in data set [43] came to 0.8. In addition, the solubility kinetic in data set [44] worked out at 1 µM (≈ 0.39 µg/mL).
